How the values were obtained:
[1] = test system: healthy adults, healthy elderly subjects; assay: Safety/tolerability of a single dose given as 9 hour continuous IV infusion in healthy adults and healthy elderly subjects; type: in vivo, human
Description: (§1) This study investigates (i) the safety and tolerability of Compound A (methyl (2R,3S)-3-((methylsulfonyl)amino)-2-(((cis-4-phenylcyclohexyl)oxy)methyl)piperidine-1-carboxylate) when a single dose given as a 9 hour continuous IV infusion is administered to healthy adults, healthy elderly subjects and patients with narcolepsy type 1 (NT1); (ii) the pharmacokinetics of Compound A when a single dose given as a 9 hour continuous IV infusion is administered to healthy adults, healthy elderly subjects and patients with narcolepsy type 1; and (iii) the pharmacodynamics (PD) effects of Compound A, primarily by evaluation of the sleep latency on MWT when a single dose given as a 9 hour continuous IV infusion is administered to patients with narcolepsy type 1.
Safety and tolerability: adverse events, vital signs, 12-lead ECG and clinical laboratory tests (hematological tests, blood biochemical tests and urinalysis)
To investigate the safety of Compound A, the treatment-emergent adverse events (TEAEs) for healthy subjects and subjects with narcolepsy type 1 (NT1 patients) treated with Compound A were evaluated. A summary of the TEAEs for healthy subjects from cohorts 1 and 2 is shown in FIG. 3, for healthy subjects from cohorts S1, S2, 3, and 4 is shown in FIG. 4, and for NT1 patients is shown in FIG. 5.

[2] = Single dose PK in healthy elderly subjects (Cohort 3), plasma; type: in vivo, human
Description: as §1
(§2) Pharmacokinetics: Concentrations of Compound A in plasma, and CSF, and pharmacokinetics parameters.

[3] = Plasma concentrations in healthy subjects (Cohort 4); type: in vivo; details: human, intravenous, 112 mg
Description: as §2
(§3) Following a single 9-hour IV infusion of 112 mg to healthy adult subjects in Cohort 4, Compound A plasma concentration-time profile was consistent with that observed in Cohort 1. At 6 hours after the start of infusion, mean ratio CSF/plasma concentration of Compound A was estimated to be about 2.8%.

[4] = CSF PK in healthy subjects (Cohort 4); type: in vivo; details: human; for concentration at 6 h: cerebrospinal fluid, intravenous, 112 mg, Cohort 4
Description: as §2, §3

[5] = test system: patients with narcolepsy type 1 (NT1); assay: Number of cataplexy episodes (daily diary), single dose (Cohorts 5, 6, 7); type: in vivo, human; details: for Number of Events of Cataplexy per Week in one particular patient: cohort 7
Description: Assessment of cataplexy and other sleep manifestations using a daily diary to collect episodes of cataplexy and sleep symptoms associated with NT1.

patients with NT1 [6] = assay: Sleep latency in MWT, multiple dose (Cohorts B1, B2); type: in vivo, human
Description: (§4) The purpose of the study was to evaluate the safety, tolerability, pharmacokinetics and pharmacodynamics of Compound A after multiple IV administration in patients with NT1. NT1 patients were evaluated in Cohort B1 and B2 (Table 19). Compound A or placebo were administered via IV infusion over 9 hours once daily for 7 days. A total of 13 patients with NT1 were treated with Compound A or placebo (4, 4, and 5 subjects in the placebo, Compound A 11 mg, and Compound A 44 mg groups, respectively). In this part, potential efficacy of Compound A was evaluated with MWT, ESS, KSS, night-time PSG (NPSG), cataplexy frequency assessment, and PGI-C as an exploratory PD assessment.
An overview of study schedule and PD testing in NT1 Patients is illustrated in FIG. 11. After screening, patients eligible for these parts had to discontinue any medication for narcolepsy including medications used for EDS or cataplexy. The medications had to be stopped for a minimum of 7 days or at least 5 half-lives of each medication, whichever was longer, before the first day of dosing (Day 1). As for a subject having possibility of getting injured due to severe cataplexy, the subject might have been confined to the site before Day −2 at a discretion of the investigator. In all cohorts of these parts, subjects underwent NPSG on Day −2 and baseline MWT sessions 4 times on Day −1 (at around 10:00, 12:00, 14:00, and 16:00). Study drug dosing via IV infusion was started at around 08:00. MWT was conducted on Day 1 at around 10:00, 12:00, 14:00, and 16:00. Subjects were allowed to take a nap on the days with no MWT assessment. At night of Day 6, the subjects underwent NPSG once again to evaluate the effect of multiple daytime dosing on night-time sleep structure. On Day 7, the subjects underwent MWT at the same hours as on Day −1. Cataplexy was to be evaluated by using the self-recorded sleep diary. The subjects were discharged from the study site on Day 8.
The MWT is a validated objective measure that evaluates a person's ability to remain awake under soporific conditions for a defined period of time. As there is no biological measure of wakefulness, this was measured indirectly by the inability or delayed tendency to fall asleep. This tendency to fall asleep was measured via EEG-derived sleep latency in MWT.
On Day −1, Day 1 and Day 7, 40-minute session (1 session) of MWTs was performed 4 times (approximately at 10:00, 12:00, 14:00, and 16:00) per day. Sleep latency of each session was recorded. Subjects were required to stay awake during an interval between sessions.

patients with NT1 [7] = assay: KSS, multiple dose (Cohorts B1, B2); type: in vivo, human; details: 9 hours postdose
Description: as §4

For COC(=O)N1CCC[C@H](NS(C)(=O)=O)[C@@H]1CO[C@H]1CC[C@@H](c2ccccc2)CC1 [Compound A, methyl (2R,3S)-3-((methylsulfonyl)amino)-2-(((cis-4-phenylcyclohexyl)oxy)methyl)piperidine-1-carboxylate], the “BP and pulse rate increases vs Compound A concentration” value ([1]; human, in vivo) was “Trend for the observed BP and pulse rate increases in healthy subjects and Compound A concentration was observed”, the “commonly observed AEs” value ([1]; human, in vivo, iv) was “BP increased and heart rate increased” and the “adverse events (AEs), severity and seriousness” value ([1]; single dose, 9 hour IV infusion, Compound A groups (healthy subjects and NT1 patients)) was “all of the AEs were mild (except 1 moderate influenza) and no serious AEs were observed”. The “reduction in clearance compared to younger healthy subjects” value [2] was 20%, the concentration at 0.5 h ([3]; Mean) was 119 ng/mL and the concentration at 0.5 h ([3]; Median) was 116 ng/mL. The concentration at 1 h ([3]; Mean) was 162 ng/mL, the concentration at 1 h ([3]; Median) was 156 ng/mL and the concentration at 1.5 h ([3]; Mean) was 193 ng/mL. For the same molecule, the concentration at 1.5 h ([3]; Median) was 194 ng/mL, the concentration at 2 h ([3]; Mean) was 186 ng/mL and the concentration at 2 h ([3]; Median) was 183 ng/mL. It also gave a concentration at 3 h ([3]; Mean) of 216 ng/mL, a concentration at 3 h ([3]; Median) of 218 ng/mL and a concentration at 4 h ([3]; Mean) of 234 ng/mL. For the same molecule, the concentration at 4 h ([3]; Median) was 224 ng/mL, the concentration at 6 h ([3]; Mean) was 234 ng/mL and the concentration at 6 h ([3]; Median) was 227 ng/mL. It also gave a concentration at 8 h ([3]; Mean) of 177 ng/mL, a concentration at 8 h ([3]; Median) of 168 ng/mL and a concentration at 9 h ([3]; Mean) of 184 ng/mL. It also gave a concentration at 9 h ([3]; Median) of 182 ng/mL, a Kp at 6 h ([4]; CSF, 112 mg single 9-hour IV infusion, 6 hours after the start of infusion, healthy adults Cohort 4, read-out: mean ratio CSF/plasma concentration) of about 0.028 and a concentration at 6 h ([4]; Mean) of 6.73 ng/mL. The concentration at 6 h ([4]; Median) was 6.63 ng/mL, the “Subjects without any Events (cataplexy)” value ([5]; 5 mg (N = 6)) was 3 (50.0) N (%) and the “Number of Times of a Cataplexy Episode, Mean (SD)” value (from here on “Number of Times … (SD)”) ([5]; 5 mg, After End of Infusion) was 10.2 (23.45). For the same molecule, the “Number of Times of a Cataplexy Episode, Median” value (“Number of Times … Median” for short) ([5]; 5 mg, After End of Infusion) was 0.5, the “Number of Times … (SD)” value ([5]; 5 mg, During Infusion) was 0.0 (0.00) and the “Number of Times … Median” value ([5]; 5 mg, During Infusion) was 0.0. For the same molecule, the “Subjects without any Events (cataplexy)” value ([5]; 11.2 mg (N = 4)) was 3 (75.0) N (%), the “Number of Times … (SD)” value ([5]; 11.2 mg, After End of Infusion) was 0.0 (0.00) and the “Number of Times … Median” value ([5]; 11.2 mg, After End of Infusion) was 0.0. The “Number of Times … (SD)” value ([5]; 11.2 mg, During Infusion) was 0.8 (1.50), the “Number of Times … Median” value ([5]; 11.2 mg, During Infusion) was 0.0 and the “Subjects without any Events (cataplexy)” value ([5]; 44.8 mg (N = 4)) was 3 (75.0) N (%). For the same molecule, the “Number of Times … (SD)” value ([5]; 44.8 mg, After End of Infusion) was 0.8 (1.50), the “Number of Times … Median” value ([5]; 44.8 mg, After End of Infusion) was 0.0 and the “Number of Times … (SD)” value ([5]; 44.8 mg, During Infusion) was 0.0 (0.00). For the same molecule, the “Number of Times … Median” value ([5]; 44.8 mg, During Infusion) was 0.0, the “Number of Events of Cataplexy per Week in one particular patient” value ([5]; During Cmpd A infusion (baseline 808, during placebo infusion 83)) was 0 and the “Number of Events of Cataplexy per Week in one particular patient” value ([5]; Post Cmpd A infusion) was 58. For the same molecule, the “frequency of cataplexy compared to baseline frequency in one patient of cohort 7” value ([5]; during the infusion of Compound A) was “remarkably improved”, the “mean sleep latency in MWT” value (patients with NT1 [6]; 11 mg, Day 1 (placebo 1.31)) was 37.16 min and the “mean change from baseline in average sleep latency in MWT” value (“mean change from baseline … in MWT” below) (patients with NT1 [6]; 11 mg, Day 1 (placebo −0.66)) was 35.13 min. For the same molecule, the “mean sleep latency in MWT” value (patients with NT1 [6]; 11 mg, Day 7 (placebo 1.59)) was 23.03 min, the “mean change from baseline … in MWT” value (patients with NT1 [6]; 11 mg, Day 7 (placebo −0.38)) was 21.00 min and the “maximum sleep latency achieved in MWT” value (patients with NT1 [6]; 11 mg, at 4 hours on Day 1) was 40 min. The “mean sleep latency in MWT” value (patients with NT1 [6]; 44 mg, Day 1 (placebo 1.31)) was 40.00 min, the “mean change from baseline … in MWT” value (patients with NT1 [6]; 44 mg, Day 1 (placebo −0.66)) was 34.19 min and the “mean sleep latency in MWT” value (patients with NT1 [6]; 44 mg, Day 7 (placebo 1.59)) was 40.00 min. For the same molecule, the “mean change from baseline … in MWT” value (patients with NT1 [6]; 44 mg, Day 7 (placebo −0.38)) was 34.78 min, the “maximum sleep latency achieved in MWT” value (patients with NT1 [6]; 44 mg, all time points on both Day 1 and Day 7) was 40 min and the “mean change from baseline in KSS” value (patients with NT1 [7]; 11 mg, Day 1 (placebo 0.0)) was −3.0. The “mean change from baseline in KSS” value (patients with NT1 [7]; 11 mg, Day 7 (placebo −0.3)) was −2.0, the “mean change from baseline in KSS” value (patients with NT1 [7]; 44 mg, Day 1 (placebo 0.0)) was −4.4 and the “mean change from baseline in KSS” value (patients with NT1 [7]; 44 mg, Day 7 (placebo −0.3)) was −4.6.
